In patent publication US20130323283A1, “COMPOSITIONS AND METHODS FOR TREATING FOXP3+ TREG RELATED DISEASES” (THE CHILDREN'S HOSPITAL OF PHILADELPHIA, priority 2010, published 2013):

Experiments:
Tregs and Teff cells = assay: Treg suppression assays with cells purified from treated mice; assay type: in vivo; details: Treg:Teff 2:1 to 0:1
Text: (§1) Treg and Teff cells were purified using magnetic beads from DMSO- or p300i-treated mice.

CFSE-labeled T cells = assay: second parent-to-F1 assay (B6 T cells into B6D2F1 mice); assay type: in vivo; details: 0.9 mg/kg/d for 3 days by Alzet pumps
Text: The percentages of CFSE-labeled CD4 proliferating cells from DSMO- and C646-treated mice were 94.5% and 95.0%, respectively. The percentages of CFSE-labeled CD8 proliferating or dividing cells from DSMO- and C646-treated mice were 78.5% and 81.6%, respectively. Donor CD4 and CD8 cells (H-2d negative) from both groups had similar alloantigen-induced activation and proliferation (p>0.05).

Treg and Teff cells [1] = assay: gene expression by Treg and Teff cells from treated mice (qPCR); assay type: in vivo; details: cells from mice given 0.9 mg/kg/day for 7 days
Description: as §1
Gene expression by Treg and Teff cells from DSMO- or C646-treated mice (four mice/group) was analyzed by qPCR.

[2] = test system: CFSE-labeled CD4 and CD8 cells; assay: first parent-to-F1 assay (C57BL/6->DBA/B6), alloantigen-induced T cell proliferation in vivo; set-up: species or system mice; details: 0.8 mg/kg/d continuous via Alzet pump; 3 day assay
Text: In the first parent-to-F1 assay (C57BL/6->DBA/B6) (Tao et al., J. Immunol. (2005) 175:5774-82; Tao et al., J. Immunol. (2008) 180:6649-55; the contents of both of which are incorporated herein in their entireties), activation and proliferation of adoptively transferred CFSE-labeled CD4 and CD8 cells was monitored by flow cytometry in a 3 day assay. […] The percentages of CFSE-labeled CD4 proliferating or dividing cells from DSMO- and C646-treated mice were 65% and 73%, respectively. The percentages of CFSE-labeled CD8 proliferating or dividing cells from DSMO- and C646-treated mice were 93% and 95%, respectively.

TC1 lung cancer cells [3] = assay: TC1 lung cancer tumor growth in immunodeficient RAG-/- mice; assay type: in vivo
Description: TC1 lung cancer cells were injected in the flanks of RAG−/− mice. […] Tumors were harvested from the mice 17 days post-tumor injection. Tumor volume was monitored on days 0, 5, 10, 13 and 17 post-tumor injection. […] Tumors were exposed to C646 in RAG−/− mice. […] No effects on acetylation of certain p300-independent targets in the tumor extracts was observed (e.g. acetylation of alpha-tubulin was unimpaired).

cardiac allografts = assay: cardiac allograft model (BALB/c hearts into B6 RAG-/- recipients with adoptive transfer); assay type: in vivo, mice
Text: The effects of several HAT inhibitors (HATi) in a cardiac allograph model were studied in three experiments. This model involved vascularized cardiac allografts from BALB/c donors transplanted into immunodeficient C57BL/6 RAG−/− (B6 RAG−/−) recipients. The recipients were adoptively transferred with 1×10^6 purified C57BL/6 Teff cells (CD4+CD25−) alone or in combination with 0.5×10^6 purified Treg cells (CD4+CD25+). The cardiac allograft survival rates of the allograft recipients were monitored over a period of 120 days post-transplant.
In the first experiment, the allograft recipients were adoptively transferred with 1×10^6 Teff cells and 0.5×10^6 purified Tregs (CD4+CD25+), and treated with DMSO (control) or a HAT inhibitor via Alzet pump. Four HAT inhibitors were tested. […] One was a PCAF/GCN5 inhibitor, Lys-20-CoA-Tat. […] Rejection was defined as cessation of heartbeat.
The p300i was delivered to the allograft recipients at 0.9 mg/kg/d for 14 d using Alzet pumps.
In the third experiment, B6/RAG−/− mice (n=4/grp) were engrafted with fully MHC-mismatched BALB/c cardiac grafts and adoptively transferred with WT B6 Teff cells (1×10^6) alone or plus Tregs (0.5×10^6). […] Use of p300−/− Tregs was also unable to suppress Teff cells and prolong allograft survival in this adoptive transfer model.

B6 mice = assay: T cell proportions in lymph nodes and spleen of treated mice; assay type: in vivo; details: for CD4 proportion / CD8 proportion / CD62L CD44 proportion / Foxp3+ CD4 proportion: 0.9 mg/kg/day via Alzet pump for 7 days
Description: as §1
The proportions of CD4, CD8, Foxp3+ CD4, or CD62L CD44 (markers of memory vs. naive T cells) cells in lymph nodes (LN) and spleen (SP) of DMSO- and C646-treated mice were determined as shown in Table 4.

TC1 lung cancer cells [4] = assay: TC1 lung cancer tumor growth in WT B6 mice; assay type: in vivo
Description: In the second experiment, p300 inhibition was achieved by using a p300 inhibitor. TC1 lung cancer cells were injected in the flanks of WT B6 mice. […] Tumor volume was monitored in the mice on days 6, 10, 12, 15 and 19 post-tumor injection (FIG. 5B). […] DMSO- and C646-treated mice having tumors were obtained as described in Example 9. […] The growth of tumors in the mice was monitored by tumor volume and tumor weight (FIG. 6B).

Tregs = assay: in vitro murine Treg suppression assay (CFSE-labeled Teff proliferation); assay type: cell-based; details: for % proliferating cells: 5 μM, 72 hours
Description: Med. (2007) 13:1299-307, the contents of which are incorporated by their entireties. In these assays, effector T cells (Teffs) were labeled with carboxyfluorescein diacetate succinimidyl ester (CFSE), and stimulated by CD3 mAb plus irradiated antigen presenting cells (APCs). […] The percentage of proliferating CFSE-labeled Teffs in each mixture was assessed by flow cytometry after 72 hours as shown in Table 1.

Treg and Teff cells [5] = assay: Treg and Teff gene expression in vitro by qPCR; assay type: cell-based; details: 5 μM, 24 hours, CD3/CD28 mAbs plus IL-2
Description: Gene expression Foxp3, CTLA-4, GITR and TGF-β in the activated Treg and Teff cells was determined by qPCR (mean±SD, n=3/grp) and normalized to 18S.

Teffs and Tregs = assay: CD4+ Foxp3+ proportion and MFI in Teffs and Tregs by flow cytometry; assay type: cell-based; details: 6 hours
Description: Teffs and Tregs were isolated, and treated with 5, 10, or 20 μM p300i or DMSO for 6 hours. Flow cytometry was used to determine the CD4+ Foxp3+ proportion in Teffs or Tregs (Table 2) and the mean fluorescent intensity (MFI) of CD4+ Foxp3+ cells in Teffs or Tregs (Table 3) before or after being treated with p300i or DMSO.

[6] = compared with DMSO-treated mice, p<0.005
[7] = qPCR, tumors from treated mice vs DMSO

How did the “ability of Tregs to suppress proliferation of Teff cells from untreated mice” value (Tregs and Teff cells; Tregs from C646-treated mice, p<0.05) turn out when `CC1=NN(c2ccc(C(=O)O)cc2)C(=O)/C1=C\c1ccc(-c2cc(C)c(C)cc2[N+](=O)[O-])o1` [C646] was run?
The value was “decreased”.

What about the “response of Teff cells from treated mice to suppression by control normal Tregs” value (Tregs and Teff cells; Tregs from untreated mice) of the same compound?
The value was “responded normally”.

And the “percentage of CFSE-labeled CD4 proliferating cells” value (CFSE-labeled T cells)?
Its value is 95.0%.

What about the “percentage of CFSE-labeled CD8 proliferating or dividing cells” value (CFSE-labeled T cells) of the same compound?
Its value is 81.6%.

And the “expression of CTLA4 by Treg cells” value (Treg and Teff cells [1]; p<0.01)?
Its value is “significantly decreased”.

And the “expression of GITR by Treg cells” value (Treg and Teff cells [1]; p<0.01)?
Its value is “significantly decreased”.

And the “expression of IL-10 by Treg cells” value (Treg and Teff cells [1]; p<0.01)?
The value was “significantly decreased”.

And the “expression of TGF-β by Treg cells” value (Treg and Teff cells [1]; p<0.01)?
Its value is “significantly decreased”.

And the “expression of CTLA4, GITR, IL-10 and TGF-β by Teff cells” value (Treg and Teff cells [1]; p>0.05)?
The value was “unchanged”.

What about the “alloantigen-induced T cell activation or proliferation (CFSE dilution) or production of cytokines such as IL-2 and IFN-γ” value [2] of the same compound?
Its value is “did not impair”.

What about the “percentage of CFSE-labeled CD4 proliferating or dividing cells” value [2] of the same compound?
The value was 73%.

And the “percentage of CFSE-labeled CD8 proliferating or dividing cells” value [2]?
Its value is 95%.

What about the “tumor growth (tumor volume)” value (TC1 lung cancer cells [3]; Alzet pumps from day 5, up to day 17) of the same compound?
Its value is “did not impair tumor growth”.

And the “acetylation of histone 3 in tumor extracts” value (TC1 lung cancer cells [3]; compared to DMSO-treated mice)?
Its value is “Decreased acetylation of histone 3”.

And the “acetylation of alpha-tubulin in tumor extracts” value (TC1 lung cancer cells [3]; p300-independent target)?
The value was “unimpaired”.

And the “cardiac allograft rejection (cessation of heartbeat)” value (cardiac allografts; first experiment: 1×10^6 Teff plus 0.5×10^6 Tregs, HAT inhibitor via Alzet pump, DMSO gave long-term survival)?
The value was “restored rejection”.

What about the “Teff cell responses in vivo (allograft rejection)” value (cardiac allografts; second experiment: Teff cells alone plus p300i 0.9 mg/kg/d for 14 d, Alzet pumps) of the same compound?
Its value is “does not suppress Teff cell responses in vivo”.

What about the “graft function (isografts)” value (cardiac allografts; second experiment: WT B6 mice with normal B6 hearts) of the same compound?
The value was “does not directly affect graft function”.

And the “T cell-dependent graft rejection” value (cardiac allografts; third experiment: Teff plus Tregs, Alzet pumps for 14 days)?
The value was “restored T cell-dependent graft rejection”.

What about the “effect on the proportions of the tested cells (CD4, CD8, Foxp3+ CD4, CD62L CD44)” value (B6 mice; LN and SP, compared to DMSO-treated mice, 0.9 mg/kg/day, 7 days) of the same compound?
The value was “negligible effect”.

What about the CD4 proportion (B6 mice; LN) of the same compound?
The CD4 proportion was 35.

And the CD8 proportion (B6 mice; LN)?
The CD8 proportion was 34.

And the “CD62L CD44 proportion” value (B6 mice; LN)?
Its value is 6.

What about the “Foxp3+ CD4 proportion” value (B6 mice; LN) of the same compound?
The value was 8.

And the CD4 proportion (B6 mice; SP)?
The CD4 proportion was 18.

What about the CD8 proportion (B6 mice; SP) of the same compound?
The CD8 proportion was 12.

What about the “CD62L CD44 proportion” value (B6 mice; SP) of the same compound?
Its value is 12.

What about the “Foxp3+ CD4 proportion” value (B6 mice; SP) of the same compound?
The value was 13.

And the “tumor growth (tumor volume)” value (TC1 lung cancer cells [4]; 0.9 mg/kg/day for about 14 days via Alzet pumps from day 6, days 6-19)?
Its value is “suppressed tumor growth”.

And the “tumor growth by volume” value (TC1 lung cancer cells [4]; [6])?
Its value is “significantly reduced”.

What about the “tumor growth by weight” value (TC1 lung cancer cells [4]; [6]) of the same compound?
The value was “significantly reduced”.

And the “intratumoral CD4 mRNA” value (TC1 lung cancer cells [4]; [7])?
The value was “significantly increased”.

And the “intratumoral CD8 mRNA” value (TC1 lung cancer cells [4]; [7])?
Its value is “comparable”.

What about the “intratumoral Foxp3 mRNA” value (TC1 lung cancer cells [4]; [7]) of the same compound?
The value was “significantly reduced”.

What about the “intratumoral granzyme B mRNA” value (TC1 lung cancer cells [4]; [7]) of the same compound?
The value was “significantly increased”.

What about the “IFN-γ production by purified CD8 (ELISPOT)” value (TC1 lung cancer cells [4]; tumor-bearing treated mice) of the same compound?
Its value is “increased”.

What about the “suppressive actions of Tregs” value (Tregs; HATi 5 μM) of the same compound?
Its value is “largely abrogated the suppressive actions of Tregs”.

What about the “% proliferating cells” value (Tregs; Treg:Teff 0:1) of the same compound?
Its value is 88%.

And the “% proliferating cells” value (Tregs; Treg:Teff 1:1)?
The value was 66%.

What about the “% proliferating cells” value (Tregs; Treg:Teff 1:2) of the same compound?
The value was 70%.

What about the “% proliferating cells” value (Tregs; Treg:Teff 1:4) of the same compound?
Its value is 78%.

What about the “% proliferating cells” value (Tregs; Treg:Teff 1:8) of the same compound?
Its value is 85%.

What about the “Treg expression of GITR gene” value (Treg and Teff cells [5]) of the same compound?
The value was “downregulated”.

And the “Treg expression of CTLA-4 gene” value (Treg and Teff cells [5]; statistical significance)?
Its value is “downregulated”.

What about the “Treg expression of Foxp3 gene” value (Treg and Teff cells [5]; statistical significance) of the same compound?
The value was “downregulated”.

And the “Treg expression of TGF-β gene” value (Treg and Teff cells [5]; statistical significance)?
Its value is “downregulated”.

What about the “mean fluorescent intensity (MFI) of CD4+ Foxp3+ cells” value (“mean fluorescent intensity (MFI)” below) (Teffs and Tregs; Teff, 5 μM) of the same compound?
The value was 121.

And the “mean fluorescent intensity (MFI)” value (Teffs and Tregs; Teff, 10 μM)?
Its value is 108.

And the “mean fluorescent intensity (MFI)” value (Teffs and Tregs; Teff, 20 μM)?
Its value is 91.

What about the “CD4+ Foxp3+ proportion” value (Teffs and Tregs; Teffs, 5 μM) of the same compound?
Its value is 2.

What about the “CD4+ Foxp3+ proportion” value (Teffs and Tregs; Teffs, 10 μM) of the same compound?
The value was 2.

What about the “CD4+ Foxp3+ proportion” value (Teffs and Tregs; Teffs, 20 μM) of the same compound?
The value was 1.

What about the “mean fluorescent intensity (MFI)” value (Teffs and Tregs; Treg, 5 μM) of the same compound?
Its value is 280.

What about the “mean fluorescent intensity (MFI)” value (Teffs and Tregs; Treg, 10 μM) of the same compound?
The value was 253.

What about the “mean fluorescent intensity (MFI)” value (Teffs and Tregs; Treg, 20 μM) of the same compound?
The value was 138.

What about the “CD4+ Foxp3+ proportion” value (Teffs and Tregs; Tregs, 5 μM) of the same compound?
Its value is 71.

And the “CD4+ Foxp3+ proportion” value (Teffs and Tregs; Tregs, 10 μM)?
The value was 68.

What about the “CD4+ Foxp3+ proportion” value (Teffs and Tregs; Tregs, 20 μM) of the same compound?
Its value is 49.
